Consider seven compounds from patent publication US9580390B2, “Indazole compounds as kinase inhibitors and method of treating cancer with same” (University Health Network, priority 2011, dated 2017).

SMILES strings stand for the structures. Read-outs that look alike come from different tables or passages of the source.

The test system of one assay is TICs (Ovarian 2393A). The experiment in a line: Ovarian tumor-initiating cell growth inhibition (Alamar Blue). Format: cell-based. The conditions noted are these: 144 h; Ovarian 2393A TICs, 6 days; read-out: Tumor Initiating Cell GI50 Range Ovarain 2393A. In general terms: The colour change of resazurin is a common sign of viable cells or microbes.
The subject of another assay is TICs (Colon 12). The experiment in a line: Colon tumor-initiating cell growth inhibition (Alamar Blue). The conditions noted are these: 216 h; Colon 12 TICs, 9 days; read-out: Tumor Initiating Cell GI50 Range Colon 12. Format: cell-based.
Assay [1] concerns colon cancer cells (HCT116). The experiment in a line: Cancer cell line growth inhibition (SRB assay). It counts as cell-based. Conditions: Homo sapiens, HCT-116; read-out: Cancer Cell Line GI50 Range HCT116. Background: Sulforhodamine B stains cellular protein and so reports cell mass.
The target of the next assay is T1, MAPK2 (Homo sapiens, UniProt P28482).
T1 construct: purchased Millipore Corporation
The experiment in a line: Panel of 270 human kinases (Millipore). It counts as biochemical. The protocol: (§1) The inhibitory activity of selected compounds of the invention (A335, A405, A410, A261, A300 and A363) was evaluated against a panel of 270 different human kinase enzymes by Millipore Corporation. The % Inhibition was determined by the formula: % Inhibition=100×(1−(experimental value−background value)/(high activity control−background value)).

Another assay addresses T2, JNK3 (Homo sapiens, UniProt P53779).
T2 construct: purchased Millipore Corporation
The experiment in a line: Panel of 270 human kinases (Millipore). Format: biochemical. The protocol: as §1

In another assay the target is T3, ALK (Homo sapiens, UniProt Q9UM73).
T3 construct: purchased Millipore Corporation
The experiment in a line: Panel of 270 human kinases (Millipore). Format: biochemical. The protocol: as §1

Another assay has as its target T4, cKit (V560G) (Homo sapiens, UniProt P10721, V560G).
T4 construct: purchased Millipore Corporation
In words: Panel of 270 human kinases (Millipore). It counts as biochemical. The protocol:
as §1

For another assay, the target named is T5, MUSK (Homo sapiens, UniProt O15146).
T5 construct: purchased Millipore Corporation
T5 sequence (O15146 24-869): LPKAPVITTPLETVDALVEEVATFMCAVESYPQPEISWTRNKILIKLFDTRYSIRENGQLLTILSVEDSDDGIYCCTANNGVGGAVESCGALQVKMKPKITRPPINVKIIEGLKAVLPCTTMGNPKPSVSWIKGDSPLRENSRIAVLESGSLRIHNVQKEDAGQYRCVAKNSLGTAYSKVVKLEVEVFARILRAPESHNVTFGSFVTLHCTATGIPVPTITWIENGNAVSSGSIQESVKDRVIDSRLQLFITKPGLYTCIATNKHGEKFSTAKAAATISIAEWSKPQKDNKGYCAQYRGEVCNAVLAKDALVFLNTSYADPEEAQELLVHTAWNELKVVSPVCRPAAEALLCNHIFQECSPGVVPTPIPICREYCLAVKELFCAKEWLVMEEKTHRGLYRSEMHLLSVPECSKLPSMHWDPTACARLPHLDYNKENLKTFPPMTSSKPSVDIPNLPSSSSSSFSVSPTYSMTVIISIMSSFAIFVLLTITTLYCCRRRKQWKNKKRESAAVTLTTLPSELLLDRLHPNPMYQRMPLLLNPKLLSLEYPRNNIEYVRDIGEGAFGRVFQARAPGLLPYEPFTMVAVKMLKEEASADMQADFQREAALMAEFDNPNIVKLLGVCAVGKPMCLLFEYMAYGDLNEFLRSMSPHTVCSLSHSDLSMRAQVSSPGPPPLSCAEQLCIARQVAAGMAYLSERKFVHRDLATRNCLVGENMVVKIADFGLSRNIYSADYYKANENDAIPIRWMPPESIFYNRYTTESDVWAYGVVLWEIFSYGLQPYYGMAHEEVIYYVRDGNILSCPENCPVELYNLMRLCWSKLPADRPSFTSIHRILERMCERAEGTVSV
The experiment in a line: Panel of 270 human kinases (Millipore). Format: biochemical. Here is the method:
as §1

Another assay deals with T6, MELK (Homo sapiens, UniProt Q14680).
T6 construct: purchased Millipore Corporation
The experiment in a line: Panel of 270 human kinases (Millipore). It counts as biochemical. The protocol:
as §1

A further assay has as its target T7, Aurora-B (Homo sapiens, UniProt Q96GD4).
T7 construct: purchased Millipore Corporation
The experiment in a line: Panel of 270 human kinases (Millipore). Format: biochemical. Here is the method: as §1

The target in another assay is T8, Met(Y1248C) (Homo sapiens, UniProt P08581, Y1230C).
T8 construct: purchased Millipore Corporation
In words: Panel of 270 human kinases (Millipore). It counts as biochemical. Here is the method: as §1

For assay [2], the system named is ovarian cancer cells (PA-1). The experiment in a line: Cancer cell line growth inhibition (SRB assay). Format: cell-based. Conditions: Homo sapiens, PA-1; read-out: Cancer Cell Line GI50 Range PA-1.
For another assay, the target named is T9, human TTK (Homo sapiens, UniProt P33981).
T9 construct: amino terminal GST fusion of full length human TTK; purchased Invitrogen
T9 sequence (P33981 1-857): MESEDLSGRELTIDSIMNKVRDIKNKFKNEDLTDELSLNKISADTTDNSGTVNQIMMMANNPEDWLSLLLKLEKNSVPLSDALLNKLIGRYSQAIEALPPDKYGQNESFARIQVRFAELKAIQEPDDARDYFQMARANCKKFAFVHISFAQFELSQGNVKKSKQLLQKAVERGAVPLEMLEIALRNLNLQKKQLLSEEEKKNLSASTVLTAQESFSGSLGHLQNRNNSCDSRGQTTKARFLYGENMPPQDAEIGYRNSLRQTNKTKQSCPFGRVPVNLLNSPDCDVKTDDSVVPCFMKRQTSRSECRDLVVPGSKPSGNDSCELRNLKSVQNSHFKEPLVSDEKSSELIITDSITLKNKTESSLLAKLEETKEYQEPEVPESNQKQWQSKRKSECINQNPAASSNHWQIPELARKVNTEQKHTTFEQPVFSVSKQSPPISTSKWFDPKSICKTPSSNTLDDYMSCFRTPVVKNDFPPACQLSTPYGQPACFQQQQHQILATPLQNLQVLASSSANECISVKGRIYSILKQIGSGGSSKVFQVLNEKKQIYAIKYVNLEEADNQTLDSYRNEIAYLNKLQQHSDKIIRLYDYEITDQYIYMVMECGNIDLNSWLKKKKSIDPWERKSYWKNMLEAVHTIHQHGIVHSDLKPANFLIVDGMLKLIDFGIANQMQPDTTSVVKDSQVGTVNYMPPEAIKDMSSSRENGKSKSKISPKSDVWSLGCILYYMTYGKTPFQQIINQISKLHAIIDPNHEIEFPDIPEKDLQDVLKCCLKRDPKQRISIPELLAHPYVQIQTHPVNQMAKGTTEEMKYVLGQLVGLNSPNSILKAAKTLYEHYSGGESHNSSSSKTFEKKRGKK
In words: TTK inhibition assay (indirect ELISA). Format: biochemical.

The subject of the next assay is Breast cancer cells. In words: Cancer cell line growth inhibition (SRB assay). Format: cell-based. Conditions: Homo sapiens; MDA-MB-468; read-out: Cancer Cell Line GI50 Range MDA-MB-468.
Another assay has as its target T10, human PLK4 (Homo sapiens, UniProt O00444).
T10 construct: amino terminal GST fusion of residues 1-391 of human PLK4; made in house; host or cells: E. coli
T10 sequence (O00444 1-391): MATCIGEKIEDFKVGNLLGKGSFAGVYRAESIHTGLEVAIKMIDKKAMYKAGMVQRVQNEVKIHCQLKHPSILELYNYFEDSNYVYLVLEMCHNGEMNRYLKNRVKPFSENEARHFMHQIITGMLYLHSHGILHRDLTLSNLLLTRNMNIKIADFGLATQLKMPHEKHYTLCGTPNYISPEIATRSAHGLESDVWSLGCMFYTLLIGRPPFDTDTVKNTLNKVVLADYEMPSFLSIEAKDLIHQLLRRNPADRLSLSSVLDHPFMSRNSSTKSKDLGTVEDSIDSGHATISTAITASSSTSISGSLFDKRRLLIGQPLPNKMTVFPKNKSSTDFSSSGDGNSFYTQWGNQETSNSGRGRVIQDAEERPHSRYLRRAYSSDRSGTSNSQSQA
In words: PLK4 inhibition assay (indirect ELISA). It counts as biochemical. Conditions: 15 μM ATP. In a few lines:
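Dephosphorylated GST-PLK4 (residues 1-391, E. coli; 4 nM) was preincubated 15 min with compound, then reacted 30 min with 15 μM ATP in HEPES pH 7.4, MgCl2, Brij 35 on MBP-coated plates. Phospho-MBP was detected by antibody/HRP ELISA at 450 nm; IC50 from 10-point titration by 4-parameter logistic fit, or single 10 μM % inhibition.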
In general terms: ELISA stands for enzyme-linked immunosorbent assay.

T1 sequence (P28482 whole entry): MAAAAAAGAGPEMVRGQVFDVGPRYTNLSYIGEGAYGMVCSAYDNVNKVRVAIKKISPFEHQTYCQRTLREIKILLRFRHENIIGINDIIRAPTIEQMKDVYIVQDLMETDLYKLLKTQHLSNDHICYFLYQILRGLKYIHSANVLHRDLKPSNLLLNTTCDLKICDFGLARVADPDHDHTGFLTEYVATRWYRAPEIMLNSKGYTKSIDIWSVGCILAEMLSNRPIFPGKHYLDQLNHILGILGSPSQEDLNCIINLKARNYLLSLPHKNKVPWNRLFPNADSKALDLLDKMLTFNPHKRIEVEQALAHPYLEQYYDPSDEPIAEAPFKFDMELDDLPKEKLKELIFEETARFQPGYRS
T7 sequence (Q96GD4 whole entry): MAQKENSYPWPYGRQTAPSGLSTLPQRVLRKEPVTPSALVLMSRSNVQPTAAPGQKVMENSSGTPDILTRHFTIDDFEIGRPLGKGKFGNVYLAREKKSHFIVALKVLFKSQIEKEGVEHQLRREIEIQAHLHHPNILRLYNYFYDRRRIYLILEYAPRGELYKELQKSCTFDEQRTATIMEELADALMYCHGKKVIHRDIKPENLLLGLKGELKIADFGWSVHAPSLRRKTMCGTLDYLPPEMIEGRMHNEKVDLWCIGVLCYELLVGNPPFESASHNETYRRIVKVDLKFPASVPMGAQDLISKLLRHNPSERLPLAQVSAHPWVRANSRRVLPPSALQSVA
T2 sequence (P53779 whole entry): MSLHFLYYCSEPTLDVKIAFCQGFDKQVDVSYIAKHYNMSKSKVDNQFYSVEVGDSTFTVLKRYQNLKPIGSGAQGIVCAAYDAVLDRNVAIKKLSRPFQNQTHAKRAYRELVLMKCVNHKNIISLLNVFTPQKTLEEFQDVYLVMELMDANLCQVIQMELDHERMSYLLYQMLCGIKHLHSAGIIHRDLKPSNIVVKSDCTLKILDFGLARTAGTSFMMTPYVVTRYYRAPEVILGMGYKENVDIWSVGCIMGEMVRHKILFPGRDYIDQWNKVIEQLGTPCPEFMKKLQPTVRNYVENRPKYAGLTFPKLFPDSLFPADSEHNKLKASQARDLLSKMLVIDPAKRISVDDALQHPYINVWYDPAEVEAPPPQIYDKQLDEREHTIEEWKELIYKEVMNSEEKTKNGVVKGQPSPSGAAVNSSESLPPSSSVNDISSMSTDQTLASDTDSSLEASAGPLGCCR
T3 sequence (Q9UM73 19-1620): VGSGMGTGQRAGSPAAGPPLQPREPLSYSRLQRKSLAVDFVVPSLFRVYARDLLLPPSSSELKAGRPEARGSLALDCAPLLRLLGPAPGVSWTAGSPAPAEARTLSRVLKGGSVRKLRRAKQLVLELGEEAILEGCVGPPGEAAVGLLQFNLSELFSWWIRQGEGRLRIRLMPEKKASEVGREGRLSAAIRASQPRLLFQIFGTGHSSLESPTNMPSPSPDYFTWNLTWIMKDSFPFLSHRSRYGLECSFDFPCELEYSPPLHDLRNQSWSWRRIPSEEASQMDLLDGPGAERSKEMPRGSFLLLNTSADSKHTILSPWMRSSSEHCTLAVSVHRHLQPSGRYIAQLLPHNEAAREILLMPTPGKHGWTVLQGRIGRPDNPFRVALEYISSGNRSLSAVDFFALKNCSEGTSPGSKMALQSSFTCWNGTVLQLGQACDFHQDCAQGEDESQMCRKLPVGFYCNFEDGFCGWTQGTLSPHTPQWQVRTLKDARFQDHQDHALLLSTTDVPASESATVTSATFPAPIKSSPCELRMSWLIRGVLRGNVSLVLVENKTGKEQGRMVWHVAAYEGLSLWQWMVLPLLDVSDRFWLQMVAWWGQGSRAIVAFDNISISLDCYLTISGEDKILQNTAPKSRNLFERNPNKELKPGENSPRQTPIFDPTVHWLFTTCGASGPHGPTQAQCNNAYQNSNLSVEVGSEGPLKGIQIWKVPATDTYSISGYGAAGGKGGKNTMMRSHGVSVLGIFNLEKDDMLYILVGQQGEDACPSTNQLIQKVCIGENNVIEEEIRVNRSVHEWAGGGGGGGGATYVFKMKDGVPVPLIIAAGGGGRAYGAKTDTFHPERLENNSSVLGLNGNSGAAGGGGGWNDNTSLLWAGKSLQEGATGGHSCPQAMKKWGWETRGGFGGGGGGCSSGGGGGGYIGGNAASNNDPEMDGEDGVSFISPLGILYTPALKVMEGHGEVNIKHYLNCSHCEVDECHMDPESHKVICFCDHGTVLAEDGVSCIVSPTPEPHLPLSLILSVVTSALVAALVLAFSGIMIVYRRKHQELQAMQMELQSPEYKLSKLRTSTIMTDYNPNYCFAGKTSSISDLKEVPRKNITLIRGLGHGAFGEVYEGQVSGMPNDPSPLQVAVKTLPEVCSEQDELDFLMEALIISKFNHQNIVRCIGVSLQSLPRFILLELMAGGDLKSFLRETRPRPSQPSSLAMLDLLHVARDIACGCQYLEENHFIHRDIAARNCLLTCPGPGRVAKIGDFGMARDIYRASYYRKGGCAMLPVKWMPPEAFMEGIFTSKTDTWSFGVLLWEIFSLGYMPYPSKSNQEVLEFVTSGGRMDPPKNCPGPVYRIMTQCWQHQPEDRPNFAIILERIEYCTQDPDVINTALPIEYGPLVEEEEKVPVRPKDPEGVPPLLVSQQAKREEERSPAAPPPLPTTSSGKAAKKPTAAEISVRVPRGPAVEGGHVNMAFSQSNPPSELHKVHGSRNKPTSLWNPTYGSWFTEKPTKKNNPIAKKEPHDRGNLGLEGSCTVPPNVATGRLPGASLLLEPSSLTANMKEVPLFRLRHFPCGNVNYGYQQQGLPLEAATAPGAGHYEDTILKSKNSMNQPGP
T8 sequence (P08581 25-1408 isoform P08581-2 Y1248C limits assumed): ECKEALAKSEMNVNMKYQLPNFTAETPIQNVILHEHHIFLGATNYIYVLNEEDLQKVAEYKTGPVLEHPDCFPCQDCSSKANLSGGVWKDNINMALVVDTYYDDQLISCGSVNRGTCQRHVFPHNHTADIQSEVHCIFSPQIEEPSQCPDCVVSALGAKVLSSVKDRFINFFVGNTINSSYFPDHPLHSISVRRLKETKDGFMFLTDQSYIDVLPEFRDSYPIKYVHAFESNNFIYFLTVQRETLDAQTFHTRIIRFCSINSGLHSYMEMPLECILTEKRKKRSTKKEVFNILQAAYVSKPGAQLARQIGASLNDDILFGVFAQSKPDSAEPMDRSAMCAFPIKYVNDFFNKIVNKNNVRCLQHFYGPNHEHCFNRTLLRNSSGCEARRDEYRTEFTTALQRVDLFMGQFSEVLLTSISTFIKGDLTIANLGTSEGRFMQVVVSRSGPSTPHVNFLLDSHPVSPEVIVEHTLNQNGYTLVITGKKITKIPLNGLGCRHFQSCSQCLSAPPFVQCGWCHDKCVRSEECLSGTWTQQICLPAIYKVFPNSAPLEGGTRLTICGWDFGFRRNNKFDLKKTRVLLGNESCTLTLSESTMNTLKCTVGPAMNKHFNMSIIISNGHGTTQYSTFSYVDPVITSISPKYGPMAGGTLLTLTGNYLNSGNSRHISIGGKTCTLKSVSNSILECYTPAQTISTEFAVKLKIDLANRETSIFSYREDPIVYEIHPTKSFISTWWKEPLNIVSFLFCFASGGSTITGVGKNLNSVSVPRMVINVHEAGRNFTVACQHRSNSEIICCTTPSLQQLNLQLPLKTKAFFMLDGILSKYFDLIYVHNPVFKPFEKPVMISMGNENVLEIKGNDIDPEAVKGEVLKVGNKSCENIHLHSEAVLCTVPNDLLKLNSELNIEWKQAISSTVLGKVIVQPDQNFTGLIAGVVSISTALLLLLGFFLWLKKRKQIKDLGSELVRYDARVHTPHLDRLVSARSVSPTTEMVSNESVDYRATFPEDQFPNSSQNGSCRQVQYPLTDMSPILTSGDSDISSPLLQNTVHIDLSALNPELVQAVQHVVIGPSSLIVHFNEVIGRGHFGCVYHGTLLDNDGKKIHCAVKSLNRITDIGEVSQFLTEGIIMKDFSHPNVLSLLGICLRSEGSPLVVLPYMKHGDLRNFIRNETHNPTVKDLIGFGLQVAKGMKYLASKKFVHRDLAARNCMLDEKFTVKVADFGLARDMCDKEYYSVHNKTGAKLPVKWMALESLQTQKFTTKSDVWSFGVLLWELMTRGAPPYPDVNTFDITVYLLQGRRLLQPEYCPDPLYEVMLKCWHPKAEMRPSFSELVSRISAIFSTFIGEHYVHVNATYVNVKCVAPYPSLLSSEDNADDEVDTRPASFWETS
T4 sequence (P10721 26-976 V560G): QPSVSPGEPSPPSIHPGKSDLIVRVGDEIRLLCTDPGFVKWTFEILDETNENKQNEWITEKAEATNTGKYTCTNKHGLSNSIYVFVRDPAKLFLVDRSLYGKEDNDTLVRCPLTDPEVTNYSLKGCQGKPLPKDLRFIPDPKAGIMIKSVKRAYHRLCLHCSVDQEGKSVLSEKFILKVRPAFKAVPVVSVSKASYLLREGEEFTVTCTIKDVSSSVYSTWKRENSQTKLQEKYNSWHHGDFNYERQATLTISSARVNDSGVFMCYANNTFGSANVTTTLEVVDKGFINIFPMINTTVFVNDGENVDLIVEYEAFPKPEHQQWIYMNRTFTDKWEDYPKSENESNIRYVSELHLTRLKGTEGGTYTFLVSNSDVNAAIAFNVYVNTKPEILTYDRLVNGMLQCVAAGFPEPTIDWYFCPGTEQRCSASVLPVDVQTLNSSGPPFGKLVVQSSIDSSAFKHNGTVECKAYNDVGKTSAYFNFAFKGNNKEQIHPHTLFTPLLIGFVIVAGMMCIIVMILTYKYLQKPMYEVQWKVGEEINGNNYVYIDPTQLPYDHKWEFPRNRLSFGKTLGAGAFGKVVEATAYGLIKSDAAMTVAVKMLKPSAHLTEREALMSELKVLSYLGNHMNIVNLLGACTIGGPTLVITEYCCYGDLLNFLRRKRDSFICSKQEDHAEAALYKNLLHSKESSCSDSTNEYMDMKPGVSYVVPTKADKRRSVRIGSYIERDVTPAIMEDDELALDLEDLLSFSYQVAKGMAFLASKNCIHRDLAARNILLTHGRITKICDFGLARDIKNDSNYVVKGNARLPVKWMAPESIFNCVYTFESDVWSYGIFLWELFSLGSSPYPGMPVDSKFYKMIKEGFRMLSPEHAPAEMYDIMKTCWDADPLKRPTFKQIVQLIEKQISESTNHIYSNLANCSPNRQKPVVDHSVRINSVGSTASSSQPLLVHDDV

On to `O=C(N[C@H](c1ccccn1)C1CCCC1)c1ccc2[nH]nc(-c3ccc(N4CCN(C5COC5)CC4)cc3)c2c1` [Example A410, (S)-N-(cyclopentyl(pyridin-2-yl)methyl)-3-(4-(4-(oxetan-3-yl)piperazin-1-yl)phenyl)-1H-indazole-5-carboxamide], for which the GI50 (in the assay on TICs (Ovarian 2393A); in the assay on TICs (Colon 12); in assay [1]; in [2]) was below 100 nM each time. Moreover, the inhibition at 1 µM on MAPK2 is -8%; against JNK3, 81%; on ALK, -3%; on cKit (V560G), 86%; at MUSK, 96%; at MELK, 95%. The results for the inhibition at 1 µM on Aurora-B and on Met(Y1248C) were 92% and 88%, respectively. Further, the IC50 at human TTK (read-out: TTK IC50 Range) is below 100 nM.
Regarding `CC(C)[C@H](NC(=O)c1ccc2[nH]nc(-c3ccc(N4CCN(C5COC5)CC4)cc3)c2c1)c1ccccc1Cl` [Example A405, (S)-N-(1-(2-chlorophenyl)-2-methylpropyl)-3-(4-(4-(oxetan-3-yl)piperazin-1-yl)phenyl)-1H-indazole-5-carboxamide], the GI50 (in the assay with Breast cancer cells; with TICs (Ovarian 2393A); in the assay on TICs (Colon 12); in assay [1]; in assay [2]) was below 100 nM each time. Further, the inhibition at 1 µM at MAPK2 came out at 11%; against JNK3, 81%; at ALK, 2%; on cKit (V560G) it was 65%; against MUSK it was 94%; on MELK, 92%. For the same compound, the inhibition at 1 µM against Aurora-B is 94%; on Met(Y1248C), 44%. The IC50 on human TTK (read-out: TTK IC50 Range) is below 100 nM.
For `O=C(N[C@@H](c1ccccn1)C1CC1)c1ccc2[nH]nc(-c3ccc(N4C5CCC4CC(O)C5)cc3)c2c1` (stereo partly drawn) [Example A363, N-((R)-cyclopropyl(pyridin-2-yl)methyl)-3-(4-((1R,3R,5S)-3-hydroxy-8-azabicyclo[3.2.1]octan-8-yl)phenyl)-1H-indazole-5-carboxamide], the 50% growth inhibitory concentration (GI50) (in the assay with TICs (Ovarian 2393A); with TICs (Colon 12); in [1]; in [2]) was below 100 nM each time. Further, the inhibition at 1 µM came out at 90% against MAPK2; 90% on JNK3; 6% against ALK; 48% against cKit (V560G); 53% against MUSK; 80% on MELK. The inhibition at 1 µM against Aurora-B came to 75%; on Met(Y1248C), 23%. Besides, the IC50 on human TTK is below 100 nM.
For the compound `CC(C)[C@H](NC(=O)c1ccc2[nH]nc(-c3ccc(OC4CC5CCC(C4)N5CCO)cc3)c2c1)c1ccccc1Cl` (stereo partly drawn) [Example A337, N-((S)-1-(2-chlorophenyl)-2-methylpropyl)-3-(4-(((1R,3R,5S)-8-(2-hydroxyethyl)-8-azabicyclo[3.2.1]octan-3-yl)oxy)phenyl)-1H-indazole-5-carboxamide], the GI50 (in the assay on Breast cancer cells; in the assay on TICs (Ovarian 2393A); in the assay with TICs (Colon 12); in assay [1]; in assay [2]) was below 100 nM throughout. The IC50 on human PLK4 was below 50 nM; at human TTK (read-out: TTK IC50 Range), below 100 nM.
As for `CC(C)[C@@H](NC(=O)c1ccc2[nH]nc(-c3ccc(OC4CCN(C)CC4)cc3)c2c1)c1ccccc1Cl` [Example A274, (R)-N-(1-(2-chlorophenyl)-2-methylpropyl)-3-(4-((1-methylpiperidin-4-yl)oxy)phenyl)-1H-indazole-5-carboxamide], the GI50 in the assay with Breast cancer cells is above 500 nM; in the assay with TICs (Ovarian 2393A) it was 100 to 500 nM; with TICs (Colon 12) it was 100 to 500 nM; in assay [1], 100 to 500 nM; in [2], 100 to 500 nM. For the same compound, the IC50 was below 50 nM on human PLK4 and below 100 nM on human TTK (read-out: TTK IC50 Range).
For the compound `C[C@@H](O)CN1CCC(Oc2ccc(-c3n[nH]c4ccc(C(=O)N[C@@H](c5ccsc5)C5CCCC5)cc34)cc2)CC1` [Example A222, N-((R)-cyclopentyl(thiophen-3-yl)methyl)-3-(4-((1-((R)-2-hydroxypropyl)piperidin-4-yl)oxy)phenyl)-1H-indazole-5-carboxamide], the GI50 is 100 to 500 nM in the assay on Breast cancer cells; 100 to 500 nM in the assay with TICs (Ovarian 2393A); below 100 nM with TICs (Colon 12); below 100 nM in [1]; below 100 nM in [2]. The concentration for half-maximal inhibition (IC50) on human PLK4 was below 50 nM; on human TTK (read-out: TTK IC50 Range) it was below 100 nM.
Turning to `CC(C)CC(NC(=O)c1ccc2[nH]nc(-c3ccc(N4CCN(C5COC5)CC4)cc3)c2c1)c1ccccc1Cl` (centres unmarked) [Example A298, N-(1-(2-chlorophenyl)-3-methylbutyl)-3-(4-(4-(oxetan-3-yl)piperazin-1-yl)phenyl)-1H-indazole-5-carboxamide], the GI50 (in the assay on Breast cancer cells; in the assay on TICs (Ovarian 2393A); with TICs (Colon 12); in assay [1]; in assay [2]) was below 100 nM throughout. Besides, the half-maximal inhibitory concentration (IC50) is below 50 nM at human PLK4 and below 100 nM at human TTK (read-out: TTK IC50 Range).

For orientation: GI50 means the concentration at which growth is held to half of that of the control. One may read the inhibition as the relative decrease from the control value, in per cent. By IC50 is commonly meant the point on the concentration scale where inhibition reaches its midpoint.
